From ChEMBL document CHEMBL1201862, “PubChem BioAssay data set” (2004)
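These data come from cells grown in 96-well plates and exposed to compound for 48 hours at five concentrations. Here, GI50 denotes the concentration required for 50% inhibition of growth.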 The source made the active and inactive calls. Rule as the data show it: active = GI50 up to about 1.1 µM and inactive = higher.

Assays:
Test in all cases: NCI tumour cell line growth inhibition, 48 h
[1] = system: ACHN
[2] = system: BT-549
[3] = system: CAKI-1
[4] = system: EKVX
[5] = system: HCC 2998
[6] = system: HCT-116
[7] = system: HCT-15
[8] = system: HOP-62
[9] = system: Hs-578T
[10] = system: MCF7
[11] = system: MOLT-4
[12] = system: NCI-H226
[13] = system: SF-268
[14] = system: SK-OV-3
[15] = system: UACC-257
[16] = system: HL-60
[17] = system: NCI-H522
[18] = system: RXF 393
[19] = system: SK-MEL-5
[20] = system: SR

SMILES | GI50 [1] | GI50 [2] | GI50 [3] | GI50 [4] | GI50 [5] | GI50 [6] | GI50 [7] | GI50 [8] | GI50 [9] | GI50 [10] | GI50 [11] | GI50 [12] | GI50 [13] | GI50 [14] | GI50 [15] | GI50 [16] | GI50 [17] | GI50 [18] | GI50 [19] | GI50 [20]
CCOc1ccc(N/C(=C(/C(Cl)=C(/Cl)NCCN)[N+](=O)[O-])n2nnc3ccccc32)cc1 | 17.9 µM (inactive) | 28.4 µM (inactive) | 17.2 µM (inactive) | 50.2 µM (inactive) | > 100 µM (inactive) | 24.3 µM (inactive) | 17.9 µM | 90.8 µM (inactive) | 27.5 µM (inactive) | 35 µM (inactive) | 16.5 µM (inactive) | 86.1 µM (inactive) | 13.6 µM (inactive) | > 100 µM (inactive) | > 100 µM (inactive) |  |  |  |  | 
CCOC(=O)c1c(OCC)[nH]c(=O)c(C(c2cccs2)c2c(O)c(C(=O)OCC)c(OCC)[nH]c2=O)c1O | 12.8 µM (inactive) | 5 µM (inactive) | 18 µM (inactive) | 11.5 µM (inactive) | 13.9 µM (inactive) | 17.5 µM (inactive) | 14.5 µM | 10.4 µM (inactive) | 21 µM (inactive) | 14.9 µM (inactive) | 6.47 µM (inactive) | 3.9 µM (inactive) | 10.2 µM (inactive) |  | 11.7 µM (inactive) | 13.7 µM (inactive) | 13.8 µM (inactive) | 1.7 µM (inactive) | 12.9 µM (inactive) | 
CC(=O)OCC1OC(n2c(N)c(C#N)c(C)c(C#N)c2=S)C(OC(C)=O)C(OC(C)=O)C1OC(C)=O (centres undefined) | > 100 µM (inactive) | > 100 µM (inactive) | > 100 µM (inactive) | > 100 µM (inactive) | > 100 µM (inactive) | > 100 µM (inactive) | > 100 µM | > 100 µM (inactive) | > 100 µM (inactive) | > 100 µM (inactive) | > 100 µM (inactive) | > 100 µM (inactive) | > 100 µM (inactive) | > 100 µM (inactive) | > 100 µM (inactive) |  | > 100 µM (inactive) | > 100 µM (inactive) | > 100 µM (inactive) | 
CC(C)CCNC(=O)c1ccc(CNC(=O)/C=C/c2csc(-c3ccccc3)n2)cc1 | 52.7 µM (inactive) | 78.5 µM (inactive) | 18.7 µM (inactive) | > 100 µM (inactive) | > 100 µM (inactive) | 46.7 µM (inactive) | 95.5 µM | 17.9 µM (inactive) | 32.6 µM (inactive) | > 100 µM (inactive) | > 100 µM (inactive) | 33.3 µM (inactive) | 35.4 µM (inactive) | 40 µM (inactive) | 96.8 µM (inactive) |  | 41 µM (inactive) | 17.3 µM (inactive) | 29.5 µM (inactive) | 
CC(C)N1C=[N+](C(C)C)CC1 | > 100 µM (inactive) | > 100 µM (inactive) | > 100 µM (inactive) | > 100 µM (inactive) | > 100 µM (inactive) | > 100 µM (inactive) | > 100 µM | > 100 µM (inactive) | > 100 µM (inactive) | > 100 µM (inactive) |  | > 100 µM (inactive) | > 100 µM (inactive) | > 100 µM (inactive) | > 100 µM (inactive) |  | > 100 µM (inactive) | > 100 µM (inactive) | > 100 µM (inactive) | 
C=C1C(=O)O[C@@H]2C[C@@]3(C)CC(=O)C=C(C)[C@@H]3C[C@H]12 | 2.69 µM (inactive) | 10.8 µM (inactive) | 8.36 µM (inactive) | 12.2 µM (inactive) | 14.2 µM (inactive) | 5.32 µM (inactive) | 4.03 µM | 18 µM (inactive) | 27.2 µM (inactive) | 3.22 µM (inactive) | 3.04 µM (inactive) | 36.8 µM (inactive) | 11.8 µM (inactive) | 37.9 µM (inactive) | 12.2 µM (inactive) | 1.71 µM (inactive) | 4.46 µM (inactive) | 3.94 µM (inactive) | 10 µM (inactive) | 
C/C(=N\Nc1nc2ccccc2n1C)c1cnccn1 | 0.065 µM (active) | 5.25 µM (inactive) | 0.0348 µM (active) | 0.0424 µM (active) | 1.33 µM (inactive) | 0.0265 µM (active) | 0.0438 µM | 0.537 µM (active) |  | 0.0246 µM (active) | < 0.0261 µM (active) | 0.256 µM (active) | 0.0726 µM (active) | 0.292 µM (active) | 0.0483 µM (active) | 0.0178 µM (active) | 0.129 µM (active) | 1.23 µM (inactive) | 0.154 µM (active) | 0.0649 µM (active)
O=C(Cn1cc(-c2ccccc2)nn1)NC1CCCCC1 | > 100 µM (inactive) | > 100 µM (inactive) | > 100 µM (inactive) | > 100 µM (inactive) | 54.5 µM (inactive) | > 100 µM (inactive) | > 100 µM | > 100 µM (inactive) |  | > 100 µM (inactive) | > 100 µM (inactive) | > 100 µM (inactive) | > 100 µM (inactive) |  | > 100 µM (inactive) | > 100 µM (inactive) | > 100 µM (inactive) |  | > 100 µM (inactive) | > 100 µM (inactive)
C=C(Br)CN(C(C)=O)C1CCCCC1 | > 100 µM (inactive) |  | > 100 µM (inactive) | > 100 µM (inactive) | > 100 µM (inactive) | > 100 µM (inactive) | > 100 µM | > 100 µM (inactive) | > 100 µM (inactive) | > 100 µM (inactive) | > 100 µM (inactive) | > 100 µM (inactive) | > 100 µM (inactive) | > 100 µM (inactive) | > 100 µM (inactive) | > 100 µM (inactive) | > 100 µM (inactive) | > 100 µM (inactive) | > 100 µM (inactive) | > 100 µM (inactive)
NC(=O)C(=CNC(=S)Nc1ccccc1)C(N)=O | > 100 µM (inactive) |  | > 100 µM (inactive) | > 100 µM (inactive) | > 100 µM (inactive) | > 100 µM (inactive) | > 100 µM | > 100 µM (inactive) | 45 µM (inactive) | > 100 µM (inactive) | > 100 µM (inactive) | > 100 µM (inactive) | > 100 µM (inactive) | > 100 µM (inactive) | > 100 µM (inactive) | > 100 µM (inactive) | > 100 µM (inactive) | > 100 µM (inactive) | > 100 µM (inactive) | > 100 µM (inactive)
O=c1[nH]c(Nc2nc3ccccc3[nH]2)nc(O)c1Cc1ccccc1 | 61 µM (inactive) | > 100 µM (inactive) | > 100 µM (inactive) | > 100 µM (inactive) |  | > 100 µM (inactive) | > 100 µM |  | 56 µM (inactive) |  | > 100 µM (inactive) | > 100 µM (inactive) | > 100 µM (inactive) |  | > 100 µM (inactive) | > 100 µM (inactive) | > 100 µM (inactive) |  | > 100 µM (inactive) | > 100 µM (inactive)
CC1(C)OC(=O)C(=Cc2ccc([N+](=O)[O-])s2)C(=O)O1 | 13.7 µM (inactive) | 13.4 µM (inactive) | 15.6 µM (inactive) | 17.1 µM (inactive) | 11.3 µM (inactive) | 2.4 µM (inactive) | 3.18 µM | 18.2 µM (inactive) |  | 12.7 µM (inactive) | 8.22 µM (inactive) | 23.5 µM (inactive) | 14.7 µM (inactive) | 25.5 µM (inactive) | 18.6 µM (inactive) | 2.49 µM (inactive) |  |  | 16.2 µM (inactive) | 2.72 µM (inactive)
COC(=O)[C@@]12CCCC(=O)[C@@H]1[C@H]1CCCC[C@H]12 | > 100 µM (inactive) | > 100 µM (inactive) | > 100 µM (inactive) | > 100 µM (inactive) | > 100 µM (inactive) | > 100 µM (inactive) | > 100 µM | > 100 µM (inactive) |  | > 100 µM (inactive) | 30.6 µM (inactive) | > 100 µM (inactive) | > 100 µM (inactive) | > 100 µM (inactive) | > 100 µM (inactive) |  | > 100 µM (inactive) | > 100 µM (inactive) | > 100 µM (inactive) | > 100 µM (inactive)
C=CCN1C(=O)N/C(=C\c2ccc(Cl)cc2)C1=O | > 100 µM (inactive) | > 100 µM (inactive) | > 100 µM (inactive) | 93.8 µM (inactive) |  | > 100 µM (inactive) | > 100 µM | > 100 µM (inactive) | > 100 µM (inactive) | > 100 µM (inactive) | > 100 µM (inactive) | > 100 µM (inactive) | > 100 µM (inactive) | > 100 µM (inactive) | > 100 µM (inactive) | > 100 µM (inactive) | 87.7 µM (inactive) | > 100 µM (inactive) | > 100 µM (inactive) | 
Fc1ccc(C(OCCN2CCC3CCC(C2)N3C/C=C/c2cccs2)c2ccc(F)cc2)cc1 (centres undefined) | 11.8 µM (inactive) | 13.2 µM (inactive) | 10.2 µM (inactive) | 4.41 µM (inactive) | 3.21 µM (inactive) | 3.45 µM (inactive) | 4.06 µM | 13.6 µM (inactive) | 12.1 µM (inactive) | 7.69 µM (inactive) | 1.21 µM (inactive) | 7.19 µM (inactive) | 12.2 µM (inactive) | 12.9 µM (inactive) | 3.66 µM (inactive) |  | 5.02 µM (inactive) | 3.77 µM (inactive) | 3.04 µM (inactive) | 
N#Cc1nc(C2CCC2)oc1N | > 100 µM (inactive) |  | > 100 µM (inactive) | > 100 µM (inactive) | > 100 µM (inactive) | > 100 µM (inactive) | > 100 µM | > 100 µM (inactive) | > 100 µM (inactive) | > 100 µM (inactive) | > 100 µM (inactive) | > 100 µM (inactive) | > 100 µM (inactive) | > 100 µM (inactive) | > 100 µM (inactive) | 84.9 µM (inactive) | > 100 µM (inactive) | > 100 µM (inactive) | > 100 µM (inactive) | > 100 µM (inactive)
